Each molecule was assayed against ROCK kinase (assay: In vitro ROCK kinase inhibition activity evaluation (33P-ATP filter-binding)). Conditions: 1 nM ROCK kinase, 20 μM Long S6 Kinase substrate peptide, 2 h room temperature.
Assay type: biochemical
Parameters: key to ROCK inhibition activity: 1 μM ≦ + < 5 μM; 0.1 μM ≦ ++ < 1 μM; +++ < 0.1 μM; −− N/A
Protocol: Biological Activity Experiment: In Vitro ROCK Kinase Inhibition Activity Evaluation
Experimental Objective: Test ROCK Inhibition IC50 Value of Invented Compounds
Buffer solution: 20 mM Hepes (pH 7.5), 10 mM MgCl2, 1 mM EGTA, 0.02% Brij35, 0.02 mg/ml BSA, 0.1 mM Na3VO4, 2 mM DTT, 1% DMSO
To a freshly prepared buffer solution was added ROCK substrate Long S6 Kinase substrate peptide, with concentration at 20 μM. 1 nM ROCK kinase was then added, and well stirred. A series of DMSO solution (starting from 10 μM, dilution factor 3) of testing article was added using Echo550. The mixture was incubated for 20 min at room temperature, then was added ^33P-ATP (radioactive intensity 10 μCi/μL) to initiate reaction and further reacted for 2 h at room temperature. The mixture was filtered through P81 ion exchange paper (Whatman #3698-915), and washed by 0.75% phosphoric acid. The intensity of radiation was measured by Filter-Binding method.
The inhibition activity of the testing articles were measured by comparing the residue kinase activity to blank substrate (pure DMSO). Using Prism software ((GraphPad Software, San Diego Calif., USA) to calculate IC50 and curve.

`O=S(=O)(c1cccc2cnccc12)N1CC[C@@H]2NCC[C@@H]21` (stereo in doubt) [Example 1, 5-((hexahydropyrrolo[3,2-b]pyrrol-1(2H)-yl)sulfonyl)isoquinoline] was tested. Which IC50 did it give?
The IC50 was 100 to 1000 nM.

Which IC50 does the source give for `O=S(=O)(c1cccc2cnccc12)N1C[C@@H]2CCN[C@@H]2C1` (stereo in doubt) [Example 2, 5-((hexahydropyrrolo[3,4-b]pyrrol-5(1H)-yl)sulfonyl)isoquinoline] here?
The IC50 was 100 to 1000 nM.

For `O=S(=O)(c1cccc2cnccc12)N1C[C@H]2CCCN[C@H]2C1` (stereo in doubt) [Example 3, 5-((hexahydro-1H-pyrrolo[3,4-b]pyridin-6(2H)-yl)sulfonyl)isoquinoline], which IC50 is on record?
Its IC50 is 100 to 1000 nM.

Which IC50 does the source give for `O=S(=O)(c1cccc2cncc(Cl)c12)N1CC[C@@H]2NCC[C@@H]21` (stereo in doubt) [Example 16, 4-chloro-5-((hexahydropyrrolo[3,2-b]pyrrol-1(2H)-yl)sulfonyl)isoquinoline] here?
Its IC50 is 100 to 1000 nM.

Which IC50 does the source give for `O=S(=O)(c1cccc2cncc(Cl)c12)N1C[C@@H]2CCN[C@@H]2C1` (stereo in doubt) [Example 17, 4-chloro-5-((hexahydropyrrolo[3,4-b]pyrrol-5 (1H)-yl)sulfonyl)isoquinoline] here?
Its IC50 is 100 to 1000 nM.

Which IC50 does the source give for `O=S(=O)(c1cccc2cncc(Cl)c12)N1C[C@H]2CCCN[C@H]2C1` (stereo in doubt) [Example 18, 4-chloro-5-((hexahydro-1H-pyrrolo[3,4-b]pyridin-6(2H)-yl)sulfonyl)isoquinoline] here?
The IC50 was 100 to 1000 nM.

Which IC50 does the source give for `O=S(=O)(c1cccc2cncc(Cl)c12)N1C[C@H]2CN[C@H]2C1` (stereo in doubt) [Example 19, 5-(3,6-diazabicyclo[3.2.0]heptan-3-ylsulfonyl)-4-chloroisoquinoline] here?
The IC50 was less than 100 nM.

Which IC50 does the source give for `O=S(=O)(c1cccc2cncc(F)c12)N1CC[C@@H]2NCC[C@@H]21` (stereo in doubt) [Example 24, 4-fluoro-5-((hexahydropyrrolo[3,2-b]pyrrol-1(2H)-yl)sulfonyl)isoquinoline] here?
The IC50 was 1000 to 5000 nM.

Which IC50 does the source give for `O=S(=O)(c1cccc2cncc(F)c12)N1C[C@H]2CCCN[C@H]2C1` (stereo in doubt) [Example 26, 4-fluoro-5-((hexahydro-1H-pyrrolo[3,4-b]pyridin-6(2H)-yl)sulfonyl)isoquinoline] here?
Its IC50 is 100 to 1000 nM.

How did the IC50 turn out when `O=S(=O)(c1cccc2cncc(F)c12)N1C[C@H]2CN[C@H]2C1` (stereo in doubt) [Example 27, 5-(3,6-diazabicyclo[3.2.0]heptan-3-ylsulfonyl)-4-fluoroisoquinoline] was run?
Its IC50 is 100 to 1000 nM.

With `O=S(=O)(c1cccc2cncc(C(F)F)c12)N1CC[C@@H]2NCC[C@@H]21` (stereo in doubt) [Example 31, 4-(difluoromethyl)-5-((hexahydropyrrolo[3,2-b]pyrrol-1(2H)-yl)sulfonyl)isoquinoline] as the molecule, how does the ROCK inhibition activity read?
Its ROCK inhibition activity is “−−”.

Which ROCK inhibition activity does the source give for `O=S(=O)(c1cccc2cncc(C(F)F)c12)N1C[C@@H]2CCN[C@@H]2C1` (stereo in doubt) [Example 32, 4-(difluoromethyl)-5-((hexahydropyrrolo[3,4-b]pyrrol-5(1H)-yl)sulfonyl)isoquinoline] here?
Its ROCK inhibition activity is “−−”.

Which ROCK inhibition activity does the source give for `O=S(=O)(c1cccc2cncc(C(F)F)c12)N1C[C@H]2CCCN[C@H]2C1` (stereo in doubt) [Example 33, 4-(difluoromethyl)-5-((hexahydro-1H-pyrrolo[3,4-b]pyridin-6(2H)-yl)sulfonyl)isoquinoline] here?
Its ROCK inhibition activity is “−−”.

Which ROCK inhibition activity does the source give for `O=S(=O)(c1cccc2cncc(C(F)F)c12)N1C[C@H]2CN[C@H]2C1` (stereo in doubt) [Example 34, 5-(3,6-diazabicyclo[3.2.0]heptan-3-ylsulfonyl)-4-(difluoromethyl)isoquinoline] here?
Its ROCK inhibition activity is “−−”.

How did the IC50 turn out when `Cc1cncc2cccc(S(=O)(=O)N3CC[C@@H]4NCC[C@@H]43)c12` (stereo in doubt) [Example 37, 5-((hexahydropyrrolo[3,2-b]pyrrol-1(2H)-yl)sulfonyl)-4-methylisoquinoline] was run?
Its IC50 is 100 to 1000 nM.

`Cc1cnc(O)c2cccc(S(=O)(=O)N3C[C@@H]4CCN[C@@H]4C3)c12` (stereo in doubt) [Example 39, 5-((hexahydropyrrolo[3,4-b]pyrrol-5(1H)-yl)sulfonyl)-4-methylisoquinolin-1-ol] was tested. Which IC50 did it give?
The IC50 was 100 to 1000 nM.

With `Cc1cncc2cccc(S(=O)(=O)N3C[C@H]4CCCN[C@H]4C3)c12` (stereo in doubt) [Example 40, 5-((hexahydro-1H-pyrrolo[3,4-b]pyridin-6(2H)-yl)sulfonyl)-4-methylisoquinoline] as the molecule, how does the IC50 read?
The IC50 was less than 100 nM.

For `Cc1cncc2cccc(S(=O)(=O)N3C[C@H]4CN[C@H]4C3)c12` (stereo in doubt) [Example 41, 5-(3,6-diazabicyclo[3.2.0]heptan-3-ylsulfonyl)-4-methylisoquinoline], which IC50 is on record?
Its IC50 is less than 100 nM.

For `O=S(=O)(c1cccc2cncc(C(F)(F)F)c12)N1C[C@@H]2CCN[C@@H]2C1` (stereo in doubt) [Example 46, 5-((hexahydropyrrolo[3,4-b]pyrrol-5 (1H)-yl)sulfonyl)-4-(trifluoromethyl)isoquinoline], which ROCK inhibition activity is on record?
The ROCK inhibition activity was “−−”.

Which IC50 does the source give for `COc1cncc2cccc(S(=O)(=O)N3CC[C@@H]4NCC[C@@H]43)c12` (stereo in doubt) [Example 47, 5-((hexahydropyrrolo[3,2-b]pyrrol-1(2H)-yl)sulfonyl)-4-methoxyisoquinoline] here?
The IC50 was 1000 to 5000 nM.

`COc1cncc2cccc(S(=O)(=O)N3C[C@@H]4CCN[C@@H]4C3)c12` (stereo in doubt) [Example 48, 5-((hexahydropyrrolo[3,4-b]pyrrol-5 (1H)-yl)sulfonyl)-4-methoxyisoquinoline] was tested. Which IC50 did it give?
The IC50 was 1000 to 5000 nM.

`COc1cncc2cccc(S(=O)(=O)N3C[C@H]4CCCN[C@H]4C3)c12` (stereo in doubt) [Example 49, 5-((hexahydro-1H-pyrrolo[3,4-b]pyridin-6(2H)-yl)sulfonyl)-4-methoxyisoquinoline] was tested. Which IC50 did it give?
Its IC50 is 1000 to 5000 nM.

`COc1cncc2cccc(S(=O)(=O)N3C[C@H]4CN[C@H]4C3)c12` (stereo in doubt) [Example 50, 5-(3,6-diazabicyclo[3.2.0]heptan-3-ylsulfonyl)-4-methoxyisoquinoline] was tested. Which IC50 did it give?
Its IC50 is 1000 to 5000 nM.

How did the IC50 turn out when `O=S(=O)(c1cccc2cnccc12)N1CCC2NCCCC2C1` (stereo not drawn) [Example 5, 6-(isoquinolin-5-ylsulfonyl)decahydro-1,6-naphthyridine] was run?
Its IC50 is 100 to 1000 nM.

For `O=S(=O)(c1cccc2cnccc12)N1CCC2NCCCC21` (stereo not drawn) [Example 6, 5-((octahydro-1H-pyrrolo[3,2-b]pyridin-1-yl)sulfonyl)isoquinoline], which IC50 is on record?
The IC50 was 100 to 1000 nM.

For `O=S(=O)(c1cccc2cnccc12)N1C[C@H]2CNC[C@H]2C1` [Example 7, 5-((hexahydropyrrolo[3,4-c]pyrrol-2(1H)-yl)sulfonyl)isoquinoline], which IC50 is on record?
Its IC50 is 100 to 1000 nM.

How did the IC50 turn out when `O=S(=O)(c1cccc2cnccc12)N1CC2CCNCC2C1` (stereo not drawn) [Example 8, 5-((hexahydro-1H-pyrrolo[3,4-c]pyridin-2(3H)-yl)sulfonyl)isoquinoline] was run?
Its IC50 is 100 to 1000 nM.

`O=S(=O)(c1cccc2cnccc12)N1CCC2CCNC2C1` (stereo not drawn) [Example 9, 5-((hexahydro-1H-pyrrolo[2,3-c]pyridin-6(2H)-yl)sulfonyl) isoquinoline] was tested. Which IC50 did it give?
Its IC50 is 1000 to 5000 nM.

`NC1CN(S(=O)(=O)c2cccc3cnccc23)CC12CC2` (stereo not drawn) [Example 10, 5-(isoquinolin-5-ylsulfonyl)-5-azaspiro[2.4]heptan-7-amine] was tested. Which ROCK inhibition activity did it give?
Its ROCK inhibition activity is “−−”.

Which ROCK inhibition activity does the source give for `CCNC1CN(S(=O)(=O)c2cccc3cnccc23)CC12CC2` (stereo not drawn) [Example 11, N-ethyl-5-(isoquinolin-5-ylsulfonyl)-5-azaspiro[2.4]heptan-7-amine] here?
The ROCK inhibition activity was “−−”.

`NC1CCN(S(=O)(=O)c2cccc3cnccc23)C12CC2` (stereo not drawn) [Example 13, 4-(isoquinolin-5-ylsulfonyl)-4-azaspiro[2.4]heptan-7-amine] was tested. Which IC50 did it give?
The IC50 was less than 100 nM.

`O=S(=O)(c1cccc2cnccc12)N1CCC2NCCCCC21` (stereo not drawn) [Example 14, 1-(isoquinolin-5-ylsulfonyl)decahydropyrrolo[3,2-b]azepine] was tested. Which IC50 did it give?
The IC50 was 100 to 1000 nM.

How did the IC50 turn out when `O=S(=O)(c1cccc2cnccc12)N1CCC2CNCC2C1` (stereo not drawn) [Example 15, 5-((hexahydro-1H-pyrrolo[3,4-c]pyridin-5(6H)-yl)sulfonyl)isoquinoline] was run?
Its IC50 is 100 to 1000 nM.

With `O=S(=O)(c1cccc2cncc(Cl)c12)N1CCC2NCCCC2C1` (stereo not drawn) [Example 20, 6-((4-chloroisoquinolin-5-yl)sulfonyl)decahydro-1,6-naphthyridine] as the molecule, how does the IC50 read?
Its IC50 is 100 to 1000 nM.

Which IC50 does the source give for `O=S(=O)(c1cccc2cncc(Cl)c12)N1CCC2NCCCC21` (stereo not drawn) [Example 21, 4-chloro-5-((octahydro-1H-pyrrolo[3,2-b]pyridin-1-yl)sulfonyl)isoquinoline] here?
The IC50 was 100 to 1000 nM.

`O=S(=O)(c1cccc2cncc(Cl)c12)N1C[C@H]2CNC[C@H]2C1` [Example 22, 4-chloro-5-((hexahydropyrrolo[3,4-c]pyrrol-2(1H)-yl)sulfonyl)isoquinoline] was tested. Which IC50 did it give?
The IC50 was 100 to 1000 nM.

For `O=S(=O)(c1cccc2cncc(Cl)c12)N1CC2CCNCC2C1` (stereo not drawn) [Example 23, 4-chloro-5-((hexahydro-1H-pyrrolo[3,4-c]pyridin-2(3H)-yl)sulfonyl)isoquinoline], which IC50 is on record?
Its IC50 is 100 to 1000 nM.

For `O=S(=O)(c1cccc2cncc(F)c12)N1C[C@@H]2CCN[C@@H]2C1` [Example 25, 4-fluoro-5-((hexahydropyrrolo[3,4-b]pyrrol-5(1H)-yl)sulfonyl)isoquinoline], which IC50 is on record?
Its IC50 is 100 to 1000 nM.

Which IC50 does the source give for `O=S(=O)(c1cccc2cncc(F)c12)N1CCC2NCCCC21` (stereo not drawn) [Example 28, 4-fluoro-5-((octahydro-1H-pyrrolo[3,2-b]pyridin-1-yl)sulfonyl)isoquinoline] here?
The IC50 was 100 to 1000 nM.

Source: patent US9856264B2, “Isoquinolinesulfonyl derivative as RHO kinase inhibitor” (MEDSHINE DISCOVERY INC., priority 2014, dated 2018)
